# Measurements: ChEMBL document CHEMBL3885861, “Open TG-GATES”
# Organism: Rattus norvegicus
# Experiment: Open TG-GATES - Regimen: Daily Repeat
# Assay type: toxicity, organism-based, Sprague-Dawley
# Set-up: regimen Daily Repeat, gender Male, age 6 weeks
# Details: in vivo, po, 0 mg/kg, route gavage, dose level Control; for APTT / Bas / Eos / Fbg / Hb / Ht / Lym / MCH / MCHC / MCV / Mono / Neu / PT / Plat / RBC / Ret / WBC: tissue Blood; for KIDNEY_L / KIDNEY_R / KIDNEY_TOTAL: tissue Kidney; for LIVER: tissue Liver; for A/G / ALP / ALT / AST / BUN / CRE / Ca / Cl / DBIL / GLC / IP / K / LDH / Na / PL / RALB / TBIL / TC / TG / TP / gamma-GTP: tissue Plasma
smiles,measurement,setting,value
CCOc1ccc(NC(=O)CC(C)O)cc1 (configuration not stated) [BUCETIN],TERMINAL_BW,"72 h, time 3 day",249.6 g
same,APTT,"72 h, time 3 day",17.8 s
same,Bas,"72 h, time 3 day",0%
same,Eos,"72 h, time 3 day",1%
same,Fbg,"72 h, time 3 day",305.2 mg/dL
same,Hb,"72 h, time 3 day",13.4 g/dL
same,Ht,"72 h, time 3 day",40.2%
same,Lym,"72 h, time 3 day",73.4%
same,MCH,"72 h, time 3 day",21.3 pg
same,MCHC,"72 h, time 3 day",33.3%
same,MCV,"72 h, time 3 day",64.1 fL
same,Mono,"72 h, time 3 day",3%
same,Neu,"72 h, time 3 day",22%
same,PT,"72 h, time 3 day",14 s
same,Plat,"72 h, time 3 day",120.3 x10_4/uL
same,RBC,"72 h, time 3 day",627 x10_4/ul
same,Ret,"72 h, time 3 day",7.2%
same,WBC,"72 h, time 3 day",91.6 x10_2/uL
same,KIDNEY_L,"72 h, time 3 day",1.1 g
same,KIDNEY_R,"72 h, time 3 day",1.1 g
same,KIDNEY_TOTAL,"72 h, time 3 day",2.1 g
same,LIVER,"72 h, time 3 day",11.9 g
same,A/G,"72 h, time 3 day",0.8
same,ALP,"72 h, time 3 day",1726.4 IU/L
same,ALT,"72 h, time 3 day",33.8 IU/L
same,AST,"72 h, time 3 day",66.8 IU/L
same,BUN,"72 h, time 3 day",14.8 mg/dL
same,CRE,"72 h, time 3 day",0.2 mg/dL
same,Ca,"72 h, time 3 day",11 mg/dL
same,Cl,"72 h, time 3 day",105.4 meq/L
same,DBIL,"72 h, time 3 day",0.02 mg/dL
same,GLC,"72 h, time 3 day",179 mg/dL
same,IP,"72 h, time 3 day",7.5 mg/dL
same,K,"72 h, time 3 day",4.1 meq/L
same,LDH,"72 h, time 3 day",67.2 IU/L
same,Na,"72 h, time 3 day",144 meq/L
same,PL,"72 h, time 3 day",165.2 mg/dL
same,RALB,"72 h, time 3 day",2.7 g/dL
same,TBIL,"72 h, time 3 day",0.048 mg/dL
same,TC,"72 h, time 3 day",82.4 mg/dL
same,TG,"72 h, time 3 day",104.6 mg/dL
same,TP,"72 h, time 3 day",5.9 g/dL
same,gamma-GTP,"72 h, time 3 day",1.2 IU/L
same,TERMINAL_BW,"[…], time 7 day",287 g
same,TERMINAL_BW,"[…], time 14 day",375 g
same,TERMINAL_BW,"[…], time 28 day",420.9 g
same,APTT,"[…], time 7 day",16.5 s
same,Bas,"[…], time 7 day",0%
same,Eos,"[…], time 7 day",1.2%
same,Fbg,"[…], time 7 day",262.4 mg/dL
same,Hb,"[…], time 7 day",13.5 g/dL
same,Ht,"[…], time 7 day",40%
same,Lym,"[…], time 7 day",81.2%
same,MCH,"[…], time 7 day",20.7 pg
same,MCHC,"[…], time 7 day",33.7%
same,MCV,"[…], time 7 day",61.5 fL
same,Mono,"[…], time 7 day",2.6%
same,Neu,"[…], time 7 day",14.4%
same,PT,"[…], time 7 day",13.9 s
same,Plat,"[…], time 7 day",112.2 x10_4/uL
same,RBC,"[…], time 7 day",651 x10_4/ul
same,Ret,"[…], time 7 day",6.3%
same,WBC,"[…], time 7 day",93.2 x10_2/uL
same,APTT,"[…], time 14 day",17.7 s
same,Bas,"[…], time 14 day",0.2%
same,Eos,"[…], time 14 day",1%
same,Fbg,"[…], time 14 day",321.4 mg/dL
same,Hb,"[…], time 14 day",14 g/dL
same,Ht,"[…], time 14 day",41.7%
same,Lym,"[…], time 14 day",75.8%
same,MCH,"[…], time 14 day",20.2 pg
same,MCHC,"[…], time 14 day",33.6%
same,MCV,"[…], time 14 day",60.2 fL
same,Mono,"[…], time 14 day",2.4%
same,Neu,"[…], time 14 day",20.4%
same,PT,"[…], time 14 day",13.8 s
same,Plat,"[…], time 14 day",127.4 x10_4/uL
same,RBC,"[…], time 14 day",694 x10_4/ul
same,Ret,"[…], time 14 day",4.6%
same,WBC,"[…], time 14 day",121.6 x10_2/uL
same,APTT,"[…], time 28 day",18.6 s
same,Bas,"[…], time 28 day",0.2%
same,Eos,"[…], time 28 day",1.2%
same,Fbg,"[…], time 28 day",296.4 mg/dL
same,Hb,"[…], time 28 day",15.3 g/dL
same,Ht,"[…], time 28 day",44%
same,Lym,"[…], time 28 day",79.4%
same,MCH,"[…], time 28 day",19.7 pg
same,MCHC,"[…], time 28 day",34.9%
same,MCV,"[…], time 28 day",56.5 fL
same,Mono,"[…], time 28 day",2.2%
same,Neu,"[…], time 28 day",16.6%
same,PT,"[…], time 28 day",13.9 s
same,Plat,"[…], time 28 day",99.2 x10_4/uL
same,RBC,"[…], time 28 day",778.4 x10_4/ul
same,Ret,"[…], time 28 day",2.7%
same,WBC,"[…], time 28 day",100.2 x10_2/uL
same,KIDNEY_L,"[…], time 7 day",1.2 g
same,KIDNEY_R,"[…], time 7 day",1.1 g
same,KIDNEY_TOTAL,"[…], time 7 day",2.3 g
same,KIDNEY_L,"[…], time 14 day",1.5 g
same,KIDNEY_R,"[…], time 14 day",1.3 g
same,KIDNEY_TOTAL,"[…], time 14 day",2.8 g
same,KIDNEY_L,"[…], time 28 day",1.4 g
same,KIDNEY_R,"[…], time 28 day",1.4 g
same,KIDNEY_TOTAL,"[…], time 28 day",2.9 g
same,LIVER,"[…], time 7 day",13.2 g
same,LIVER,"[…], time 14 day",17.3 g
same,LIVER,"[…], time 28 day",16.3 g
same,A/G,"[…], time 7 day",0.8
same,ALP,"[…], time 7 day",1795.8 IU/L
same,ALT,"[…], time 7 day",32.2 IU/L
same,AST,"[…], time 7 day",65.6 IU/L
same,BUN,"[…], time 7 day",15.4 mg/dL
same,CRE,"[…], time 7 day",0.2 mg/dL
same,Ca,"[…], time 7 day",11 mg/dL
same,Cl,"[…], time 7 day",105.2 meq/L
same,DBIL,"[…], time 7 day",0.018 mg/dL
same,GLC,"[…], time 7 day",185 mg/dL
same,IP,"[…], time 7 day",7.3 mg/dL
same,K,"[…], time 7 day",4 meq/L
same,LDH,"[…], time 7 day",95.2 IU/L
same,Na,"[…], time 7 day",142.6 meq/L
same,PL,"[…], time 7 day",166.6 mg/dL
same,RALB,"[…], time 7 day",2.6 g/dL
same,TBIL,"[…], time 7 day",0.038 mg/dL
same,TC,"[…], time 7 day",77.8 mg/dL
same,TG,"[…], time 7 day",144 mg/dL
same,TP,"[…], time 7 day",5.8 g/dL
same,gamma-GTP,"[…], time 7 day",1 IU/L
same,A/G,"[…], time 14 day",0.8
same,ALP,"[…], time 14 day",1354.4 IU/L
same,ALT,"[…], time 14 day",33 IU/L
same,AST,"[…], time 14 day",60.8 IU/L
same,BUN,"[…], time 14 day",16 mg/dL
same,CRE,"[…], time 14 day",0.2 mg/dL
same,Ca,"[…], time 14 day",11.1 mg/dL
same,Cl,"[…], time 14 day",104.4 meq/L
same,DBIL,"[…], time 14 day",0.02 mg/dL
same,GLC,"[…], time 14 day",188.8 mg/dL
same,IP,"[…], time 14 day",7.4 mg/dL
same,K,"[…], time 14 day",3.9 meq/L
same,LDH,"[…], time 14 day",97.4 IU/L
same,Na,"[…], time 14 day",144.8 meq/L
same,PL,"[…], time 14 day",170.2 mg/dL
same,RALB,"[…], time 14 day",2.8 g/dL
same,TBIL,"[…], time 14 day",0.05 mg/dL
same,TC,"[…], time 14 day",81 mg/dL
same,TG,"[…], time 14 day",160.8 mg/dL
same,TP,"[…], time 14 day",6.3 g/dL
same,gamma-GTP,"[…], time 14 day",1.2 IU/L
same,A/G,"[…], time 28 day",0.8
same,ALP,"[…], time 28 day",1201 IU/L
same,ALT,"[…], time 28 day",30.8 IU/L
same,AST,"[…], time 28 day",62.4 IU/L
same,BUN,"[…], time 28 day",15.2 mg/dL
same,CRE,"[…], time 28 day",0.3 mg/dL
same,Ca,"[…], time 28 day",11 mg/dL
same,Cl,"[…], time 28 day",105.8 meq/L
same,DBIL,"[…], time 28 day",0.022 mg/dL
same,GLC,"[…], time 28 day",188.6 mg/dL
same,IP,"[…], time 28 day",5.8 mg/dL
same,K,"[…], time 28 day",3.9 meq/L
same,LDH,"[…], time 28 day",69.6 IU/L
same,Na,"[…], time 28 day",145.4 meq/L
same,PL,"[…], time 28 day",146.2 mg/dL
same,RALB,"[…], time 28 day",2.8 g/dL
same,TBIL,"[…], time 28 day",0.058 mg/dL
same,TC,"[…], time 28 day",65.4 mg/dL
same,TG,"[…], time 28 day",155.6 mg/dL
same,TP,"[…], time 28 day",6.3 g/dL
same,gamma-GTP,"[…], time 28 day",2 IU/L
